The IC50 is the concentration needed to halve the response being measured.

In assay [1] the target is HA-GST-Rheb (GTP-γ-S loaded) activating mTORC1 (Homo sapiens (Human), UniProt Q15382). Kind of assay: Rheb-dependent in vitro kinase assay (Rheb-IVK; LanthaScreen or Western readout). The format is biochemical. As to conditions: Rheb-dependent in vitro kinase assay; read-out: IVK IC50. Background: TR-FRET usually uses a lanthanide donor and a delayed reading to cut background.

The subject of the next assay is T389pS6K1 in MCF-7 cells. Kind of assay: Cell-based AlphaLISA assay, pS6K1 (Thr389). As to conditions: Homo sapiens, MCF7. On the technique in general: Bead proximity is the source of the signal in Alpha formats.
The target in another assay is Rheb (Homo sapiens (Human), UniProt Q15382). Briefly: Affinity Selection Mass Spectrometry (ASMS). The class given is binding. The following applies: affinity (R3/R0) in Affinity Selection Mass Spectrometry assay. In outline:
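Affinity selection used 2 μM compound with 60 μM Rheb and 180 μM GDP for 30 min at room temperature. After 10 kDa ultrafiltration washes, protein was denatured in MeCN and bound compound quantified by C18 UPLC with Q-TOF MS, against a no-protein control.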

Sequence of Rheb (Q15382 1-169 limits assumed): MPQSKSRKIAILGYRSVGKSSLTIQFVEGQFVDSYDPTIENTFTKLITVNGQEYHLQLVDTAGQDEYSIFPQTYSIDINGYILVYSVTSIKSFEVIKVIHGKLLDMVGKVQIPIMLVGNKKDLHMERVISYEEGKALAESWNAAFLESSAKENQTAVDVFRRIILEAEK
Sequence of HA-GST-Rheb (GTP-γ-S loaded) activating mTORC1 (Q15382 1-181): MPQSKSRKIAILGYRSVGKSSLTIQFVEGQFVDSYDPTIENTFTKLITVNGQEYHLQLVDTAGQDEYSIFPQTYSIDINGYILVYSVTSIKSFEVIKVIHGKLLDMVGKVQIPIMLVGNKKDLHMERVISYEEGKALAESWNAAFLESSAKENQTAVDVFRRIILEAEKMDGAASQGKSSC

Take `CN1CCC(CCNC(=O)c2cc3c(Sc4ccc(Cl)cc4)cc(Cl)cc3[nH]2)CC1` [I-142, 6-chloro-4-(4-chlorophenylthio)-N-(2-(1-methylpiperidin-4-yl)ethyl)-1H-indole-2-carboxamide]: the IC50 (in assay [1]; with T389pS6K1 in MCF-7 cells) was less than 10 µM each time. The “ASMS (R3/R0)” value on Rheb is “A (an affinity (R3/R0)>100%)”.

Take `CN1CCC(CCNC(=O)c2cc3c(Sc4ccc(Cl)cc4Cl)cc(Cl)cc3[nH]2)CC1` [I-106, 6-chloro-4-(2,4-dichlorophenylthio)-N-(2-(1-methylpiperidin-4-yl)ethyl)-1H-indole-2-carboxamide]: the IC50 (in assay [1]; with T389pS6K1 in MCF-7 cells) was less than 10 µM in each case. Further, at Rheb, the “ASMS (R3/R0)” value is “B (an affinity (R3/R0) between 100% and 20%)”.

Turning to `CN1CCC(NC(=O)c2cc3c(Sc4ccc(Cl)cc4)cc(Cl)cc3[nH]2)C1` (stereo not shown) [I-79, 6-chloro-4-(4-chlorophenylthio)-N-(1-methylpyrrolidin-3-yl)-1H-indole-2-carboxamide], the IC50 (in assay [1]; in the assay on T389pS6K1 in MCF-7 cells) was less than 10 µM throughout. For the same molecule, the “ASMS (R3/R0)” value at Rheb is “B (an affinity (R3/R0) between 100% and 20%)”.

Regarding `OCc1cc2c(Oc3ccccc3Cl)cc(Cl)cc2[nH]1` [I-216, (6-chloro-4-(2-chlorophenoxy)-1H-indol-2-yl)methanol], in assay [1], the IC50 lay within 10 to 100 µM. For the same molecule, the “ASMS (R3/R0)” value at Rheb is “B (an affinity (R3/R0) between 100% and 20%)”.

For the molecule `Clc1cccc(Sc2cccc3[nH]ccc23)c1` [I-243, 4-(3-chlorophenylthio)-1H-indole], the concentration for half-maximal inhibition (IC50) in assay [1] fell in the range of 10 to 100 µM. For the same molecule, the “ASMS (R3/R0)” value at Rheb is “B (an affinity (R3/R0) between 100% and 20%)”.

Consider `OCc1cc2c(Cl)cc(Oc3ccccc3)cc2[nH]1` [I-252, (4-chloro-6-phenoxy-1H-indol-2-yl)methanol], for which the IC50 in assay [1] lay in the range of 10 to 100 µM. On Rheb, the “ASMS (R3/R0)” value is “B (an affinity (R3/R0) between 100% and 20%)”.

As to `CN(C)C(=O)c1ccc(Cn2c(C(=O)O)cc3c(Br)cc(Sc4ccc5ccccc5c4)cc32)cc1` [I-28, 4-bromo-1-(4-(dimethylcarbamoyl)benzyl)-6-(naphthalen-2-ylthio)-1H-indole-2-carboxylic acid], the 50% inhibitory concentration (IC50) in assay [1] was less than 10 µM. For the same molecule, the “ASMS (R3/R0)” value on Rheb is “B (an affinity (R3/R0) between 100% and 20%)”.

As for `CC(C)(C)c1cccc(Sc2cc(Cl)cc3[nH]c(C(=O)O)cc23)c1` [I-65, 4-(3-tert-butylphenylthio)-6-chloro-1H-indole-2-carboxylic acid], in assay [1], the 50% inhibitory concentration (IC50) is less than 10 µM. The “ASMS (R3/R0)” value on Rheb was “B (an affinity (R3/R0) between 100% and 20%)”.

As for `CC(=O)c1cc2c(Oc3ccccc3)cc(Cl)cc2[nH]1` [I-150], the IC50 in assay [1] was more than 100 µM. In addition, the “ASMS (R3/R0)” value on Rheb was “C (an affinity (R3/R0)<20%)”.

Take `Clc1ccc(Oc2cccc3[nH]ccc23)c(Cl)c1` [I-255, 4-(2,4-Dichlorophenoxy)-1H-indole]: in assay [1], the IC50 was 10 to 100 µM. In addition, on Rheb, the “ASMS (R3/R0)” value was “B (an affinity (R3/R0) between 100% and 20%)”.

Take `COCc1cc2c(Br)cc(Sc3ccc(Cl)c(Cl)c3)cc2n1Cc1ccc(C(=O)N(C)C)cc1` [I-34]: the IC50 in assay [1] is more than 100 µM. Besides, the “ASMS (R3/R0)” value at Rheb is “B (an affinity (R3/R0) between 100% and 20%)”.

With `CN1CCC(CCNC(=O)c2cc3c(Sc4ccc(Cl)cc4Cl)cc(Cl)c(Cl)c3[nH]2)CC1` [I-27], the half-inhibitory concentration (IC50) in assay [1] is more than 100 µM. Also, the “ASMS (R3/R0)” value on Rheb is “B (an affinity (R3/R0) between 100% and 20%)”.

For `CC(C)(O)CNC(=O)c1ccc(Cn2c(C(=O)O)cc3c(Br)cc(Oc4ccccc4)cc32)cc1` [I-55, 4-bromo-1-(4-(2-hydroxy-2-methylpropylcarbamoyl)benzyl)-6-phenoxy-1H-indole-2-carboxylic acid], in assay [1], the 50% inhibitory concentration (IC50) is 10 to 100 µM. Also, the “ASMS (R3/R0)” value at Rheb is “C (an affinity (R3/R0)<20%)”.

On to `COc1ccc(Sc2cc(Cl)cc3[nH]c(CO)cc23)cc1OC` [I-135], for which, in assay [1], the IC50 is more than 100 µM. Also, the “ASMS (R3/R0)” value on Rheb was “B (an affinity (R3/R0) between 100% and 20%)”.

For the origin of these results see patent US11339144B2 (Navitor Pharmaceuticals, Inc., priority 2017, dated 2022).
